Laboratory results from PMC8703412 (Pharmaceuticals, 2021).
≈ marks a conversion by molar mass, not a printed value. Like-named read-outs stand apart in the source and are kept apart here.

Legend:
[1] = system: Mycobacterium tuberculosis strain 331/88 (i.e., H37Rv); test: MIC micromethod in Šula's medium, drug-susceptible Mtb.; format: cell-based
[2] = system: Mycobacterium avium 330/88; test: MIC micromethod in Šula's medium, M. avium; format: cell-based
[3] = system: Mycobacterium kansasii 6509/96 (clinical isolate); test: MIC micromethod in Šula's medium, M. kansasii; format: cell-based
HepG2 cells = test: Cytotoxicity, CellTiter 96 (MTS) assay; details: read-out: Cytotoxicity for HepG2 cells, IC50; 24 h incubation, 1–1000 µM
[4] = Cytotoxicity, CellTiter 96 (MTS) assay; details: human, Cytotoxicity for HepG2 cells, IC50, 24 h incubation, 1–1000 µM
Mtb. H37Ra pMV261/pVV16 = test: microbe, parasite or virus in culture; format: cell-based, Mycobacterium tuberculosis; details: for MIC: Mycobacterium tuberculosis, H37RA, 672 h, read-out: MIC H37Ra pMV261/pVV16
Mtb. H37Ra pMV261-inhA = test: microbe, parasite or virus in culture; format: cell-based, Mycobacterium tuberculosis; details: for MIC: Mycobacterium tuberculosis, H37RA, 672 h, read-out: MIC H37Ra pMV261-inhA
[5] = system: Mtb. H37Ra pVV16-katGsmeg; test: microbe, parasite or virus in culture; format: cell-based; details: Mycobacterium tuberculosis, 672 h, read-out: MIC H37Ra pVV16-katGsmeg
[6] = Solubility in the cytotoxicity concentration range; format: physicochemical; details: cytotoxicity assay medium, DMSO max 1% v/v
Experimental: The cells were seeded in a density 15,000 cells per well in a 96-well plate. The next day the cells were treated with each of the tested substances at a broad range of concentrations (1–1000 µM) in triplicates; the compounds were dissolved in DMSO (maximal incubation concentration of DMSO was 1% v/v). The controls representing 100% cell viability, 0% cell viability (the cells treated with 10% DMSO), no cell control and vehiculum controls were incubated in parallel, also as triplicates. After 24 h of incubation in a humidified atmosphere containing 5% CO2 at 37 °C, the reagent from the kit CellTiter 96 AQueous One Solution Cell Proliferation Assay (CellTiter 96; PROMEGA, Fitchburg, WI, USA) was added. After 2 h incubation at 37 °C, absorbance of samples was recorded at 490 nm (TECAN, Infinita M200, Grödig, Austria). A standard toxicological parameter IC50 was calculated by nonlinear regression from a semilogarithmic plot of incubation concentration versus percentage of absorbance relative to untreated controls using GraphPad Prism 8 software (GraphPad Software, Inc., La Jolla, CA, USA).
Cytotoxicity was quantified using the standard parameter IC50 (Figure 3).

[7] = system: Mycobacterium tuberculosis strain 331/88 (i.e., H37Rv); parameters: method as in PMID 34198149; details: cited from earlier work
[8] = system: Mycobacterium avium 330/88; parameters: method as in PMID 34198149; details: cited from earlier work
[9] = system: Mycobacterium kansasii 6509/96 (clinical isolate); parameters: method as in PMID 34198149; details: cited from earlier work
[10] = Mycobacterium tuberculosis, H37RV, 336 h, 14 d incubation, esters, Table 1, read-out: MIC Mtb. 331/88 14 d
[11] = Mycobacterium tuberculosis, H37RV, 504 h, 21 d incubation, esters, Table 1, read-out: MIC Mtb. 331/88 21 d
[12] = Mycobacterium avium, 330/88, 336 h, 14 d incubation, Table 1, read-out: MIC M. avium 330/88 14 d
[13] = Mycobacterium avium, 330/88, 504 h, 21 d incubation, Table 1, read-out: MIC M. avium 330/88 21 d
[14] = Mycobacterium kansasii, 168 h, 7 d incubation, Table 1, read-out: MIC M. kansasii 6509/96 7 d
[15] = Mycobacterium kansasii, 336 h, 14 d incubation, Table 1, read-out: MIC M. kansasii 6509/96 14 d
[16] = Mycobacterium kansasii, 504 h, 21 d incubation, Table 1, read-out: MIC M. kansasii 6509/96 21 d
[17] = Mycobacterium kansasii, 504 h, text summary over 7, 14 and 21 d, read-out: MIC for M. kansasii 6509/96
[18] = Mycobacterium tuberculosis, H37RV, Table 4, read-out: MIC H37Rv
[19] = Mycobacterium avium, 330/88, 504 h, 14 and 21 d, read-out: MIC for M. avium

Row | Compound | IC50 (HepG2 cells) [µM] | MIC [1, 10] [µM] | MIC [1, 11] [µM] | MIC [2, 12] [µM] | MIC [2, 13] [µM] | MIC [3, 14] [µM] | MIC [3, 15] [µM] | MIC [3, 16] [µM] | melting point [°C] | IC50 at 24 h [4] [µM] | MIC [3, 17] [µM] | MIC [1, 18] [µM] | MIC H37Ra pMV261/pVV16 (Mtb. H37Ra pMV261/pVV16) | MIC (Mtb. H37Ra pMV261/pVV16) [µM] | MIC H37Ra pMV261-inhA (Mtb. H37Ra pMV261-inhA) [µM] | MIC (Mtb. H37Ra pMV261-inhA) [µM] | MIC [5] [µM] | other results
1 | 5-Isopropyl-2-methylphenyl (E)-2-(2-isonicotinoylhydrazineylidene)propanoate [3k] | > 500 |  |  |  |  |  |  |  |  |  |  |  |  |  |  |  |  | MIC ([1]; 14 d incubation, esters, Table 1, read-out: MIC Mtb. 331/88 14 d): 0.25 µM; MIC ([1]; 21 d incubation, esters, Table 1, read-out: MIC Mtb. 331/88 21 d): 0.25 µM; MIC ([2]; 14 d incubation, Table 1, read-out: MIC M. avium 330/88 14 d): 500 µM; MIC ([2]; 21 d incubation, Table 1, read-out: MIC M. avium 330/88 21 d): 1000 µM; MIC ([3]; 7 d incubation, Table 1, read-out: MIC M. kansasii 6509/96 7 d): 8 µM; MIC ([3]; 14 d incubation, Table 1, read-out: MIC M. kansasii 6509/96 14 d): 16 µM; MIC ([3]; 21 d incubation, Table 1, read-out: MIC M. kansasii 6509/96 21 d): 16 µM; fold lower activity than isomer 3l ([3]; M. kansasii 6509/96): 64 ×
2 | C/C(=N\NC(=O)c1ccncc1)C(=O)Oc1ccc(Oc2ccccc2)cc1 [3e, 4-Phenoxyphenyl (E)-2-(2-isonicotinoylhydrazineylidene)propanoate] | > 500 | ≤ 0.125 | 0.5 (≈ 0.188 µg/mL) | 250 (≈ 93.8 µg/mL) | 500 (≈ 188 µg/mL) | 2 (≈ 0.751 µg/mL) | 4 (≈ 1.5 µg/mL) | 4 (≈ 1.5 µg/mL) | 152.4 to 155 | 551 |  |  |  |  |  |  |  | 
3 | C/C(=N\NC(=O)c1ccncc1)C(=O)Oc1cccc2ccccc12 [3i, Naphthalen-1-yl (E)-2-(2-isonicotinoylhydrazineylidene)propanoate] | > 500 | 0.25 (≈ 0.0833 µg/mL) | 0.25 (≈ 0.0833 µg/mL) | 125 (≈ 41.7 µg/mL) | 250 (≈ 83.3 µg/mL) | 0.25 (≈ 0.0833 µg/mL) | 0.25 (≈ 0.0833 µg/mL) | 0.25 (≈ 0.0833 µg/mL) | 181.1 to 182.5 | 999 | ≤ 0.5 |  |  |  |  |  |  | 
4 | C/C(=N\NC(=O)c1ccncc1)C(=O)Oc1ccc2ccccc2c1 [3j, Naphthalen-2-yl (E)-2-(2-isonicotinoylhydrazineylidene)propanoate] | > 500 | 0.25 (≈ 0.0833 µg/mL) | 0.25 (≈ 0.0833 µg/mL) | 125 (≈ 41.7 µg/mL) | 250 (≈ 83.3 µg/mL) | 0.25 (≈ 0.0833 µg/mL) | 0.25 (≈ 0.0833 µg/mL) | 0.5 (≈ 0.167 µg/mL) | 116 to 117.2 | 682 | ≤ 0.5 |  |  |  |  |  |  | 
5 | C/C(=N\NC(=O)c1ccncc1)C(=O)Oc1cc(C(C)C)ccc1C [3l, 2-Isopropyl-5-methyphenyl (E)-2-(2-isonicotinoylhydrazineylidene)propanoate] |  | 0.25 (≈ 0.0848 µg/mL) | 0.25 (≈ 0.0848 µg/mL) | 125 (≈ 42.4 µg/mL) | 250 (≈ 84.8 µg/mL) | 0.25 (≈ 0.0848 µg/mL) | 0.25 (≈ 0.0848 µg/mL) | 0.25 (≈ 0.0848 µg/mL) |  | > 1000 | ≤ 0.5 | 0.25 (≈ 0.0848 µg/mL) | 0.25 | 0.25 (≈ 0.0848 µg/mL) | 5 | 5 (≈ 1.7 µg/mL) | 0.05 to 0.125 (≈ 0.017 to 0.0424 µg/mL) | 
6 | C/C(=N\NC(=O)c1ccncc1)C(=O)Oc1cccc2cccnc12 [3m, Quinolin-8-yl (E)-2-(2-isonicotinoylhydrazineylidene)propanoate] |  | 0.25 (≈ 0.0836 µg/mL) | 0.5 (≈ 0.167 µg/mL) | 32 (≈ 10.7 µg/mL) | 64 (≈ 21.4 µg/mL) | 2 (≈ 0.669 µg/mL) | 4 (≈ 1.34 µg/mL) | 4 (≈ 1.34 µg/mL) | 159.3 to 160.4 | 247 |  | 0.25 (≈ 0.0836 µg/mL) | 0.25 | 0.25 (≈ 0.0836 µg/mL) | 5 | 5 (≈ 1.67 µg/mL) | 0.125 (≈ 0.0418 µg/mL) | MIC [2, 19]: 32 to 64 µM (≈ 10.7 to 21.4 µg/mL)
7 | C/C(=N\NC(=O)c1ccncc1)C(=O)Oc1cc(Cl)ccc1Oc1ccc(Cl)cc1Cl [3o, 5-Chloro-2-(2,4-dichlorophenoxy)phenyl (E)-2-(2-isonicotinoylhydrazineylidene)propanoate] |  | ≤ 0.125 | ≤ 0.125 | 64 (≈ 30.6 µg/mL) | 64 (≈ 30.6 µg/mL) | 4 (≈ 1.91 µg/mL) | 4 (≈ 1.91 µg/mL) | 8 (≈ 3.83 µg/mL) | 153 to 155 | 211 |  | 0.125 (≈ 0.0598 µg/mL) | 0.325 | 0.325 (≈ 0.156 µg/mL) | 6 | 6.25 (≈ 2.99 µg/mL) | 0.125 (≈ 0.0598 µg/mL) | MIC [2, 19]: 32 to 64 µM (≈ 15.3 to 30.6 µg/mL); solubility in the concentration range of 1–1000 μM [6]: without any solubility problem
8 | C/C(=N\NC(=O)c1ccncc1)C(=O)O [compound 2, (E)-2-(2-isonicotinoylhydrazineylidene)propanoic acid] |  |  |  |  |  |  |  |  |  |  |  |  |  |  |  |  |  | MIC Mtb. 331/88 14 d ([7]; 14 d incubation): 1 µM (≈ 0.207 µg/mL); MIC Mtb. 331/88 21 d ([7]; 21 d incubation): 1 µM (≈ 0.207 µg/mL); MIC M. avium 330/88 14 d ([8]; 14 d incubation): 500 µM (≈ 104 µg/mL); MIC M. avium 330/88 21 d ([8]; 21 d incubation): >1000 µM; MIC M. kansasii 6509/96 7 d ([9]; 7 d incubation): 8 µM (≈ 1.66 µg/mL); MIC M. kansasii 6509/96 14 d ([9]; 14 d incubation): 16 µM (≈ 3.32 µg/mL); MIC M. kansasii 6509/96 21 d ([9]; 21 d incubation): 16 µM (≈ 3.32 µg/mL)
